Test system: HCV
Test: Inhibition of HCV infection of cultured human hepatocytes (quantitative RT-PCR of HCV RNA)
Type: cell-based
Settings: cultured human hepatocytes infected with infectious human serum; fenofibric acid tested at 50 μM and 500 μM; HCV RNA copies/350,000 cells four days after infection; 0.5% DMSO
Description: Isolated human hepatocytes from surgical liver resection were seeded in 24 well microplates at the density of 3×10^5 cells/well. Cells were allowed to attach and recover 24 hours and then medium was replaced with a fresh one containing different concentrations of fenofibric acid (50 μM and 500 μM). Hepatocytes were incubated 24 hours with the indicated amounts of fenofibric acid, then medium was replaced with fresh one containing the same amounts of fenofibric acid and a fixed amount (100 μl) of an infectious human serum from a patient chronically infected with HCV. Cells were incubated 18 hours with the virus to allow infection, then washed and incubated for four days. Total RNA was extracted and viral replication was measured by quantitative RT-PCR.
Typically, 10^4 to 10^5 copies of genomes per well are detected after four days from infection. To be sure that the measured viral RNA derived from active replication, a small molecule inhibitor of the viral replicase was included as a positive control.
Viral replication was measured on total RNA by quantitative PCR and expressed as number of HCV copies/350,000 cells. The experiment was performed in triplicate wells and values are shown with standard deviations. Fenofibric acid was dissolved in DMSO and tested at 50 μM and 500 μM. […]

## CC(C)(Oc1ccc(C(=O)c2ccc(Cl)cc2)cc1)C(=O)O [fenofibric acid]
  reduction of HCV infectivity: up to 90%
